Measurements: the supplement of paper PMC11061612

Key:
Test in all cases: combination Emax (second highest fraction inhibited in the dose matrix, 72 h); higher = more inhibition; extreme values may be limits of the assay
[1] = test system: SNU-C2B (Colorectal Carcinoma)
In short: (§1)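 After 24 hours at 37°C and 5% CO2 in 1536-well plates, cells in DMEM/F12 or RPMI plus 10% FBS received two-drug dose matrices for 72 hours. Viability came from CellTiter-Glo 2.0 luminescence and was scaled as inhibition, anchored at 0 by vehicle wells and at 1 by blank wells. Combination Emax is taken as the second-highest inhibition in the matrix, and Bliss excess as the observed combination effect less EA + EB − EA·EB, with EA and EB the single-agent effects.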

[2] = test system: C-33-A (Cervical Carcinoma)
In short: as §1

[3] = test system: IA-LM (Non-Small Cell Lung Carcinoma)
In short: as §1

UACC-257 (Melanoma) = test system: UACC-257 (Melanoma)
In short: as §1

[4] = test system: CPC-N (Small Cell Lung Carcinoma)
In short: as §1

[5] = test system: LS-1034 (Colorectal Carcinoma)
In short: as §1

[6] = test system: BxPC-3 (Pancreatic Carcinoma)
In short: as §1

[7] = test system: KP-4 (Pancreatic Carcinoma)
In short: as §1

[8] = test system: OVCAR-3 (Ovarian Carcinoma)
In short: as §1

NCI-H226 (Mesothelioma) = test system: NCI-H226 (Mesothelioma)
In short: as §1

[9] = test system: HT-1080 (Other Solid Carcinomas)
In short: as §1

[10] = test system: BHT-101 (Thyroid Gland Carcinoma)
In short: as §1

[11] = test system: NCI-H3118 (Head and Neck Carcinoma)
In short: as §1

[12] = test system: COR-L88 (Small Cell Lung Carcinoma)
In short: as §1

SK-N-SH (Neuroblastoma) = test system: SK-N-SH (Neuroblastoma)
In short: as §1

[13] = test system: LCLC-103H (Non-Small Cell Lung Carcinoma)
In short: as §1

AM-38 (Glioblastoma) = test system: AM-38 (Glioblastoma)
In short: as §1

[14] = test system: MOLP-8 (Plasma Cell Myeloma)
In short: as §1

[15] = test system: SCC-4 (Oral Cavity Carcinoma)
In short: as §1

[16] = test system: SAT (Head and Neck Carcinoma)
In short: as §1

| SMILES | combination Emax [1] | combination Emax [2] | combination Emax [3] | combination Emax (UACC-257 (Melanoma)) | combination Emax [4] | combination Emax [5] | combination Emax [6] | combination Emax [7] | combination Emax [8] | combination Emax (NCI-H226 (Mesothelioma)) | combination Emax [9] | combination Emax [10] | combination Emax [11] | combination Emax [12] | combination Emax (SK-N-SH (Neuroblastoma)) | combination Emax [13] | combination Emax (AM-38 (Glioblastoma)) | combination Emax [14] | combination Emax [15] | combination Emax [16] |
| --- | --- | --- | --- | --- | --- | --- | --- | --- | --- | --- | --- | --- | --- | --- | --- | --- | --- | --- | --- | --- |
| CC1(C)CCC(CN2CCN(c3ccc(C(=O)NS(=O)(=O)c4ccc(NCC5CCOCC5)c([N+](=O)[O-])c4)c(Oc4cnc5[nH]ccc5c4)c3)CC2)=C(c2ccc(Cl)cc2)C1 [Venetoclax] + C1CN(CCC1(C(=O)N[C@@H](CCO)C2=CC=C(C=C2)Cl)N)C3=NC=NC4=C3C=CN4 [Capivasertib] (first compound max 1 µM, 7x7, partner max 3 µM) | 0.25 | 0.547 | 0.189 | 0.123 | 0.84 | 0.207 | 0.297 | 0.0982 | 0.161 | 0.241 | 0.127 | 0.214 | 0.169 | 0.557 | 0.394 | 0.238 | 0.0317 | 0.385 | 0.23 | 0.377 |
| CN(CCO)CC[C@H](CSc1ccccc1)Nc1ccc(S(=O)(=O)NC(=O)c2ccc(N3CCC([C@@H](O)c4ccccc4-c4ccc(Cl)cc4)CC3)cc2)cc1S(=O)(=O)C(F)(F)F [AZD4320] + CN(C)CCCOc1ccc(-c2ccc3ncc4c(c3c2)n(C2CCOCC2)c(=O)n4C)cn1 [AZD0156] (first compound max 1 µM, 7x7, partner max 1 µM) | 0.208 | 0.126 | 0.432 | 0.141 | 0.967 | 0.347 | 0.0513 | 0.101 | 0.132 | 0.224 | 0.549 | 0.394 | 0.0719 | 0.957 | 0.641 | 0.219 | 0.718 | 0.315 | 0.612 | 0.193 |
| Cn1cnc2c(F)c(Nc3ccc(Br)cc3Cl)c(C(=O)NOCCO)cc21 [Selumetinib] + C[C@@H]1COCCN1C2=NC(=NC(=C2)C3(CC3)[S@](=N)(=O)C)C4=C5C=CNC5=NC=C4 [AZD6738] (first compound max 10 µM, 7x7, partner max 10 µM) | 0.468 | 0.894 | 0.287 | 0.595 | 0.824 | 0.811 | 0.494 | 0.506 | 0.4 | 0.152 | 0.461 | 0.883 | 0.653 | 0.494 | 0.769 | 0.324 | 0.706 | 0.832 | 0.502 | 0.561 |
| C[C@@H](c1ccc2nccn2c1)n1nnc2ncc(-c3cnn(C)c3)nc21 [Savolitinib] + Cc1c2c(nn1C)CSCc1cc(n(C)n1)CSc1cc(c3ccccc3c1)OCCCc1c(C(=O)O)n(C)c3c-2c(Cl)ccc13 [AZD5991] (first compound max 1 µM, 7x7, partner max 1 µM) | 0.187 | 0.114 | 0.268 | 0.151 | 0.263 | 0.128 | 0.136 | 0.435 | 0.195 | 0.131 | 0.117 | 0.133 | 0.225 | 0.23 | 0.267 | 0.211 | 0.244 | 1 | 0.183 | 0.427 |
| COc1cccc2c1C(=O)c1c(O)c3c(c(O)c1C2=O)C[C@@](O)(C(=O)CO)C[C@@H]3O[C@H]1C[C@H](N)[C@H](O)[C@H](C)O1 [Doxorubicin] + Cc1cc2ncnn2cc1Nc1ncc2c(n1)n(C1CCOCC1)c(=O)n2C [AZD7648] (first compound max 1 µM, 7x7, partner max 10 µM) | 0.546 | 0.904 | 0.463 | 0.431 | 0.911 | 0.376 | 0.455 | 0.76 | 0.426 | 0.802 | 0.67 | 0.563 | 0.758 | 0.455 | 0.974 | 0.85 | 0.826 | 0.915 | 0.303 | 0.616 |
| CC1(C)CCC(CN2CCN(c3ccc(C(=O)NS(=O)(=O)c4ccc(NCC5CCOCC5)c([N+](=O)[O-])c4)c(Oc4cnc5[nH]ccc5c4)c3)CC2)=C(c2ccc(Cl)cc2)C1 [Venetoclax] + C=CCn1c(=O)c2cnc(Nc3ccc(N4CCN(C)CC4)cc3)nc2n1-c1cccc(C(C)(C)O)n1 [AZD1775] (first compound max 1 µM, partner max 1 µM) | 0.609 | 0.961 | 0.36 | 0.185 | 0.964 | 0.56 | 0.727 | 0.56 | 0.63 | 0.268 | 0.349 | 0.489 | 0.836 | 0.939 | 0.889 | 0.394 | 0.289 | 0.75 | 0.637 | 0.545 |
| NC1(C(=O)N[C@@H](CCO)c2ccc(Cl)cc2)CCN(c2ncnc3[nH]ccc23)CC1 [Capivasertib] + Cn1cnc2c(F)c(Nc3ccc(Br)cc3Cl)c(C(=O)NOCCO)cc21 [Selumetinib] (first compound max 10 µM, 7x7, partner max 10 µM) | 0.388 | 0.803 | 0.374 | 0.731 | 0.332 | 0.657 | 0.426 | 0.483 | 0.317 | 0.316 | 0.466 | 0.902 | 0.657 | 0.257 | 0.333 | 0.389 | 0.675 | 0.715 | 0.778 | 0.677 |
| Cc1c2c(nn1C)CSCc1cc(n(C)n1)CSc1cc(c3ccccc3c1)OCCCc1c(C(=O)O)n(C)c3c-2c(Cl)ccc13 [AZD5991] + C1CN(CCC1(C(=O)N[C@@H](CCO)C2=CC=C(C=C2)Cl)N)C3=NC=NC4=C3C=CN4 [Capivasertib] (first compound max 1 µM, 7x7, partner max 3 µM) | 0.135 | 0.689 | 0.15 | 0.252 | 0.338 | 0.22 | 0.126 | 0.143 | 0.185 | 0.2 | 0.139 | 0.418 | 0.245 | 0.259 | 0.387 | 0.242 | 0.494 | 1 | 0.334 | 0.738 |
| Cc1c2c(nn1C)CSCc1cc(n(C)n1)CSc1cc(c3ccccc3c1)OCCCc1c(C(=O)O)n(C)c3c-2c(Cl)ccc13 [AZD5991] + CCN(CCO)CCCOc1ccc2c(Nc3cc(CC(=O)Nc4cccc(F)c4)[nH]n3)ncnc2c1 [AZD2811] (first compound max 1 µM, 7x7, partner max 1 µM) | 0.17 | 0.275 | 0.296 | 0.322 | 0.835 | 0.227 | 0.269 | 0.667 | 0.378 | 0.262 | 0.264 | 0.267 | 0.625 | 0.36 | 0.614 | 0.371 | 0.32 | 1 | 0.663 | 0.811 |
| CN(C)CCCOc1ccc(-c2ccc3ncc4c(c3c2)n(C2CCOCC2)c(=O)n4C)cn1 [AZD0156] + O=C(c1cc(Cc2n[nH]c(=O)c3ccccc23)ccc1F)N1CCN(C(=O)C2CC2)CC1 [Olaparib] (first compound max 3 µM, partner max 3 µM) | 0.239 | 0.419 | 0.305 | 0.21 | 0.396 | 0.293 | 0.0983 | 0.287 | 0.227 | 0.251 | 0.134 | 0.362 | 0.305 | 0.16 | 0.292 | 0.289 | 0.45 | 0.67 | 0.164 | 0.133 |
| COc1cccc(OCCCN)c1-c1cc(Nc2cnc(C#N)cn2)n[nH]1 [Prexasertib] + C=CCn1c(=O)c2cnc(Nc3ccc(N4CCN(C)CC4)cc3)nc2n1-c1cccc(C(C)(C)O)n1 [AZD1775] (first compound max 1 µM, partner max 1 µM) | 0.676 | 0.985 | 0.64 | 0.48 | 1 | 0.835 | 0.76 | 0.8 | 0.885 | 0.393 | 0.576 | 0.881 | 0.906 | 0.853 | 0.939 | 0.854 | 0.857 | 0.909 | 0.665 | 0.666 |
| NC1(C(=O)N[C@@H](CCO)c2ccc(Cl)cc2)CCN(c2ncnc3[nH]ccc23)CC1 [Capivasertib] + CCN(CCO)CCCOc1ccc2c(Nc3cc(CC(=O)Nc4cccc(F)c4)[nH]n3)ncnc2c1 [AZD2811] (first compound max 10 µM, 7x7, partner max 1 µM) | 0.329 | 0.712 | 0.304 | 0.394 | 0.781 | 0.302 | 0.241 | 0.682 | 0.344 | 0.311 | 0.256 | 0.353 | 0.241 | 0.253 | 0.476 | 0.413 | 0.285 | 0.583 | 0.333 | 0.502 |
